A short description of experiment [1]: Affinity coelectrophoresis (ACE) of radiolabeled heparin through peptides. The format is binding, pig. The note with it: for heparin-binding affinity in words: ACE, low Mr heparin. The text has this: Preparation of Radiolabeled Heparin—Whole heparin from pig intestinal mucosa (Sigma) was tyramine end-labeled and radiolabeled with Na^125I (Amersham, Pharmacia Biotech, Inc., Piscataway, N.J.) to an average specific activity ≅1.0×10^7 CPM/μg as described^59. Radiolabeled heparin was fractionated on Sephadex G-100 (Bio-Rad Laboratories, Hercules, Calif.) and the final ≅12% of material to elute was retained as the low Mr material of ≦6,000 (Jordan, R., D. Beeler, and R. Rosenberg, J Biol Chem, 254:2902-2913, 1979; Laurent, T. C., et al., Biochem J, 175:691-701, 1978).
Briefly, peptides were dissolved in 1×ACE running buffer, 50 mM sodium 3-(N-morpholino)-2-hydroxypropanesulfonate (MOPSO, Sigma)/125 mM sodium acetate, pH 7.0, and serially diluted in running buffer at 2× concentrations. Peptides were then mixed 1:1 with 2% agarose/1% CHAPS, 3-[(3-cholamidopropyl)dimethylammonio]-1-propanesulfonate, (Boehringer Mannheim, Indianapolis, Ind.), and loaded into wells of a 1% agarose gel. Radiolabeled heparin or HUVEC PGs were then loaded in a slot on the […] side of the gel, and electrophoresed through the peptide-containing wells, towards the cathode. Gels were dried and PG mobility was measured with a Phosphorimager (Molecular Dynamics, Sunnyvale, Calif.) by scanning each protein lane and determining the relative radioactivity content per. 88-μm pixel through the length of the lane. Retardation coefficient (R) measurements, binding isotherm curve fittings, and apparent Kd value determinations were calculated as detailed previously (Lee, M. K., and A. D. Lander, Proc Nat Acad Sci USA, 88:2768-2772, 1991; San Antonio, J. D., et al, Biochem, 32:47464755, 1993).
Some peptides were also analyzed by ACE for heparin-binding under reducing conditions. Thus, after serial peptide dilution, β-mercaptoethanol (β-ME) was added at 5% to each peptide sample, and these were mixed 1:1 with 2% agarose/1% CHAPS/5% β-ME, and added to the ACE gel sample wells as usual.

Experiment [2] has as its system Lovenox. As to the kind of experiment: Reversal of anti-Factor Xa activity in vitro (Stachrom Heparin chromogenic assay), Lovenox. It counts as biochemical, human. Conditions: 0.5 U/ml anti-Factor Xa activity. The method, then:
(§1) Solutions of Lovenox, Orgaran, or unfractionated heparin (Sigma) were prepared in 0.32% sodium citrate or in normal human plasma to contain 0.5 U/ml anti-FXa activity. Calibrations were made against the standards provided by the Stachrom Heparin (Diagnostica Stago) assay kit. The heparin/ATIII complex was allowed to form at 37° C. for 2 minutes, peptide was added, the mixture was incubated for an additional 1-5 minutes, and then Factor Xa was added, and finally the color reagent, for one minute, and the absorbance was read at 405 nm. The increase in absorbance from the heparinized control to the test sample was divided by the difference in A405 between the heparinized control and the control without heparin to obtain the % reversal.

Experiment [3] relates to Orgaran. The experiment is described as follows: Reversal of anti-Factor Xa activity in vitro (Stachrom Heparin chromogenic assay), Orgaran. It counts as biochemical, human. The note with it: 0.5 U/ml anti-Factor Xa activity. The method, then: as §1
Experiment [4] has as its system unfractionated heparin. As to the kind of experiment: Reversal of anti-Factor Xa activity in vitro (Stachrom Heparin chromogenic assay), unfractionated heparin. The format is biochemical, human. Conditions: 0.5 U/ml anti-Factor Xa activity. The method, then:
as §1

The subject of experiment [5] is unfractionated heparin. The experiment is described as follows: Reversal of anti-thrombin effects of unfractionated heparin in vitro (thrombin clotting time in plasma). The format is biochemical, human. Conditions: heparin 0.5 U/ml; thrombin standardized to clotting time 20-22 seconds. On the procedure:
Plasma was obtained from normal donors. Thrombin concentration (human alpha thrombin, Enzyme Research Laboratories, South Bend, Ind.) was standardized to produce a clotting time of 20-22 seconds. Heparin was added at 0.5 IU anti-thrombin activity/ml. The clotting time for heparin alone was approximately 3 minutes. To test the effects of the peptides in this system, one minute after addition of heparin to the plasma, the peptides were added in concentrations ranging from 1-200 μg/ml. After one minute, thrombin was added and the clotting time determined. The effects of the peptides were concentration dependent. The clotting time was restored to normal values in all samples at the dosages shown below in Table III. The ability of the peptides to neutralize heparin inhibition of thrombin clotting time was consistent with the binding affinities shown in Table I, and with the effectiveness against low molecular weight heparin anti-Factor Xa activity in Table II.

Where only a bound is given, the exact number is not on record here.

Take “AKKARAAKKARAAKKARAAKKARAAKKARAAKKARA [(AKKARA)6, XBBXBX tandem repeat peptide]”: the “heparin-binding affinity in words” value in experiment [1] is “strong”. For the same sequence, the “Percent Reversal of anti-Factor Xa Activity, Lovenox” value (from here on “Percent Reversal … Lovenox”) in experiment [2] (peptide 0.12 mg/ml in plasma) is 86%; in experiment [2] (peptide 0.4 mg/ml in plasma), 86.5%; in experiment [2] (peptide 0.6 mg/ml in plasma) it was 82.5%. For the same sequence, the “Percent Reversal of anti-Factor Xa Activity, Orgaran” value (shortened to “Percent Reversal … Orgaran”) was found to be 74.5% in experiment [3] (peptide 0.12 mg/ml in plasma), 81.5% in experiment [3] (peptide 0.4 mg/ml in plasma) and 77% in experiment [3] (peptide 0.6 mg/ml in plasma). In addition, the entries for the “Percent Reversal of anti-Factor Xa Activity, Heparin (unfractionated)” value (“Percent Reversal … (unfractionated)” below) in experiment [4] (peptide 0.12 mg/ml in plasma), in experiment [4] (peptide 0.4 mg/ml in plasma) and in experiment [4] (peptide 0.6 mg/ml in plasma) were 99%, 97.5% and 93%, respectively. The “μg peptide/ml heparinized plasma needed to normalize thrombin time” value in experiment [5] is given as 5 μg peptide/ml heparinized plasma.
Take YPARRARYQWVRCKP: the “heparin-binding under reducing conditions in words” value in experiment [1] (ACE with β-ME) was “negligible heparin-binding”. In addition, the “Percent Reversal … Lovenox” value in experiment [2] (peptide 0.6 mg/ml in plasma) came to 25.0%. For the same sequence, the “Percent Reversal … Orgaran” value in experiment [3] (peptide 0.6 mg/ml in plasma) was found to be 16.5%. The “Percent Reversal … (unfractionated)” value in experiment [4] (peptide 0.6 mg/ml in plasma) amounted to 77.0%. Further, in experiment [5], the “μg peptide/ml heparinized plasma needed to normalize thrombin time” value is 15 μg peptide/ml heparinized plasma.
On to “AKKARAAKKARA [(AKKARA)2, XBBXBX tandem repeat peptide]”, for which the “heparin-binding affinity in words” value in experiment [1] is listed as “weak”. The “Percent Reversal … Lovenox” value in experiment [2] (peptide 0.6 mg/ml in plasma) came to 61.5%. Besides, the “Percent Reversal … Orgaran” value in experiment [3] (peptide 0.6 mg/ml in plasma) was 37.0%. In experiment [4] (peptide 0.6 mg/ml in plasma), the “Percent Reversal … (unfractionated)” value was determined as 67.0%. In addition, the “μg peptide/ml heparinized plasma needed to normalize thrombin time” value in experiment [5] was >50 μg peptide/ml heparinized plasma.
In the same order, the values of “AKKARAAKKARAAKKARAAKKARA [(AKKARA)4, XBBXBX tandem repeat peptide]” are “moderate”, 73%, 75%, 99% and 10 μg peptide/ml heparinized plasma.

These data come from US6855801B1, “Peptides modulating activities of heparin other glycosaminoglycans or proteoglycans” (Thomas Jefferson University, priority 1999, dated 2005).
